Measured values as given in US11078198B2 (BRISTOL-MYERS SQUIBB COMPANY, priority 2017, dated 2021).

Molecular target: T1, human FXR (Homo sapiens, UniProt Q96RI1)
T1 construct: expressed in transfected cells; host or cells: HEK293 cells stably carrying a 5xGal4-response-element firefly luciferase reporter, transiently transfected with pcDNA3.1-Gal4-FXR
T1 sequence (Q96RI1 262-486 limits assumed): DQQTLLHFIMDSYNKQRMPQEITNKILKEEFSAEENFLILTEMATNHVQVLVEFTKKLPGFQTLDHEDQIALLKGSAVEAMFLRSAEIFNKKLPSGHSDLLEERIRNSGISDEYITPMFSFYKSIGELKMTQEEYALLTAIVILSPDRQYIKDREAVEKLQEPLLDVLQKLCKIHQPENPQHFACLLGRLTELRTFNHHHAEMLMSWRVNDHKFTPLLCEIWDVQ
Experiment: transient human FXR/Gal4-luciferase reporter assay
Type: cell-based
Conditions: Gal4-hFXR transfected HEK293 reporter cells; relative to 8 μM GW-4064
Experimental: A Gal4-hFXR fusion construct reporter system was used as the primary assay to characterize compound activity. A construct including 5 copies of the Gal4 promoter response element upstream of a firefly luciferase reporter cDNA was stably expressed in HEK293 cells. This reporter cell line was maintained in Dulbecco's Modified Eagle's medium (DMEM; Gibco) supplemented with 1% penicillin-streptomycin (P/S) solution, 500 μg/mL Zeocin and 10% charcoal/dextran-treated fetal bovine serum (cs-FBS) at 37° C. in a humidified 5% CO2 atmosphere. Another plasmid was constructed in which the human cytomegalovirus promoter in the pcDNA3.1 vector directs the expression of the cDNA encoding a fusion protein comprised of the DNA binding domain from the Gal4 transcription factor fused to the ligand binding domain from human FXR.
The day prior to transfection, the reporter cells in culture are detached from the plate with trypsin and plated into a T75 flask at a sufficient density to achieve approximately 90% confluence the next morning. The transfection reagents are prepared by separately diluting 25 μg of the pcDNA3.1-Gal4-FXR plasmid into 1.87 mL of Opti-MEM (Thermo-Fisher), and 40 μL of Lipofectamine 2000 (Thermo-Fisher) into 1.87 mL of Opti-MEM, and then adding the diluted DNA solution into the diluted Lipofectamine 2000 solution and incubating at room temperature for 15-20 minutes. The mixture is further diluted with 10 mL of a solution comprised of DMEM, 10% cs-FBS, and 1% P/S immediately prior to transferring to the cells. The maintenance culture media is aspirated from the cells and the final transfection mixture is added before the cells are incubated overnight at 37° C. in a humidified 5% CO2 atmosphere. This protocol can be scaled up, and the transiently transfected cells can be cryopreserved in an assay-ready format.
For compound testing, 100 nL of the compounds (serial dilutions in DMSO) are dispensed with an Echo acoustic dispenser (Labcyte) into the wells of a Corning/Costar clear bottom 384-well white plate. The transfected cells are harvested, counted, and diluted such that 10-25,000 cells in 25 μL are plated into each well of the 384-well compound assay plate. The compound-treated cells are incubated overnight at 37° C. in a humidified 5% CO2 atmosphere.

EC50 [nM]	Structure (SMILES)
7.2	O=C(O)c1cc(C(F)(F)F)cc2nc(N3CCC4(C=C(c5c(-c6c(Cl)cncc6Cl)noc5C5CC5)C4)CC3)ccc12 [Example 60, 2-(2-(5-Cyclopropyl-3-(3,5-dichloropyridin-4-yl)isoxazol-4-yl)-7-azaspiro[3.5]non-1-en-7-yl)-7-(trifluoromethyl)quinoline-5-carboxylic acid]
7.2	Cc1cc(C(=O)O)cc2sc(N3CCC4(C=C(c5c(-c6c(Cl)cncc6Cl)noc5C5CC5)C4)CC3)nc12 [Example 61, 2-(2-(5-Cyclopropyl-3-(3,5-dichloropyridin-4-yl)isoxazol-4-yl)-7-azaspiro[3.5]non-1-en-7-yl)-4-methylbenzo[d]thiazole-6-carboxylic acid]
24	O=C(O)c1ccc2nc(N3CCC4(C=C(c5c(-c6c(Cl)cncc6Cl)noc5C5CC5)C4)CC3)sc2n1 [Example 62, 2-(2-(5-Cyclopropyl-3-(3,5-dichloropyridin-4-yl)isoxazol-4-yl)-7-azaspiro[3.5]non-1-en-7-yl)thiazolo[5,4-b]pyridine-5-carboxylic acid]
62	O=C(O)c1ccc2nc(N3CCC4(C=C(c5c(-c6c(Cl)cncc6Cl)noc5C5CC5)C4)CC3)sc2c1 [Example 63, 2-(2-(5-Cyclopropyl-3-(3,5-dichloropyridin-4-yl)isoxazol-4-yl)-7-azaspiro[3.5]non-1-en-7-yl)benzo[d]thiazole-6-carboxylic acid]
49	COc1ccc(C(=O)O)c2ccc(N3CCC4(C=C(c5c(-c6c(Cl)cncc6Cl)noc5C5CC5)C4)CC3)nc12 [Example 64, 2-(2-(5-Cyclopropyl-3-(3,5-dichloropyridin-4-yl)isoxazol-4-yl)-7-azaspiro[3.5]non-1-en-7-yl)-8-methoxyquinoline-5-carboxylic acid]
65	O=C(O)c1cccc2nc(N3CCC4(C=C(c5c(-c6c(Cl)cncc6Cl)noc5C5CC5)C4)CC3)ccc12 [Example 65, 2-(2-(5-Cyclopropyl-3-(3,5-dichloropyridin-4-yl)isoxazol-4-yl)-7-azaspiro[3.5]non-1-en-7-yl)quinoline-5-carboxylic acid]
342	O=C(O)c1ccc(N2CCC3(C=C(c4c(-c5c(Cl)cncc5Cl)noc4C4CC4)C3)CC2)nc1 [Example 66, 6-(2-(5-Cyclopropyl-3-(3,5-dichloropyridin-4-yl)isoxazol-4-yl)-7-azaspiro[3.5]non-1-en-7-yl)nicotinic acid]
493	O=C(O)c1ccc(N2CCC3(C=C(c4c(-c5c(Cl)cc(F)cc5Cl)noc4C4CC4)C3)CC2)nc1 [Example 67, 6-(2-(5-Cyclopropyl-3-(2,6-dichloro-4-fluorophenyl)isoxazol-4-yl)-7-azaspiro[3.5]non-1-en-7-yl)nicotinic acid]
442	O=C(O)c1cc(F)c2nc(N3CCC4(C=C(c5c(-c6c(F)cncc6F)noc5C5CC5)C4)CC3)sc2c1 [Example 68, 2-(2-(5-Cyclopropyl-3-(3,5-difluoropyridin-4-yl)isoxazol-4-yl)-7-azaspiro[3.5]non-1-en-7-yl)-4-fluorobenzo[d]thiazole-6-carboxylic acid]
730	COc1cncc(F)c1-c1noc(C2CC2)c1C1=CC2(CCN(c3nc4c(F)cc(C(=O)O)cc4s3)CC2)C1 [Example 69, 2-(2-(5-Cyclopropyl-3-(3-fluoro-5-methoxypyridin-4-yl)isoxazol-4-yl)-7-azaspiro[3.5]non-1-en-7-yl)-4-fluorobenzo[d]thiazole-6-carboxylic acid]
4400	COc1cc(C(=O)O)c2nc(N3CCC4(C=C(c5c(-c6c(Cl)cncc6Cl)noc5C5CC5)C4)CC3)sc2c1 [Example 70, 2-(2-(5-Cyclopropyl-3-(3,5-dichloropyridin-4-yl)isoxazol-4-yl)-7-azaspiro[3.5]non-1-en-7-yl)-6-methoxybenzo[d]thiazole-4-carboxylic acid]
9.4	COc1cc(C(=O)O)cc2sc(N3CCC4(C=C(c5c(-c6ccccc6C(F)(F)F)noc5C5CC5)C4)CC3)nc12 [Example 71, 2-(2-(5-Cyclopropyl-3-(2-(trifluoromethyl)phenyl)isoxazol-4-yl)-7-azaspiro[3.5]non-1-en-7-yl)-4-methoxybenzo[d]thiazole-6-carboxylic acid]
10	CCOc1cc(C(=O)O)nc2ccc(N3CCC4(C=C(c5c(-c6ccccc6C(F)(F)F)noc5C5CC5)C4)CC3)cc12 [Example 72, 6-(2-(5-Cyclopropyl-3-(2-(trifluoromethyl)phenyl)isoxazol-4-yl)-7-azaspiro[3.5]non-1-en-7-yl)-4-ethoxyquinoline-2-carboxylic acid]
16	O=C(O)c1cc(OC(F)F)c2cc(N3CCC4(C=C(c5c(-c6c(Cl)cncc6Cl)noc5C5CC5)C4)CC3)ccc2n1 [Example 73, 6-(2-(5-Cyclopropyl-3-(3,5-dichloropyridin-4-yl)isoxazol-4-yl)-7-azaspiro[3.5]non-1-en-7-yl)-4-(difluoromethoxy)quinoline-2-carboxylic acid]
38	O=C(O)c1cc(OC(F)F)c2cc(N3CCC4(C=C(c5c(-c6ccncc6Cl)noc5C5CC5)C4)CC3)ccc2n1 [Example 74, 6-(2-(3-(3-Chloropyridin-4-yl)-5-cyclopropylisoxazol-4-yl)-7-azaspiro[3.5]non-1-en-7-yl)-4-(difluoromethoxy)quinoline-2-carboxylic acid]
35	O=C(O)c1cc(OC(F)F)c2cc(N3CCC4(C=C(c5c(-c6cnccc6C(F)(F)F)noc5C5CC5)C4)CC3)ccc2n1 [Example 75, 6-(2-(5-Cyclopropyl-3-(4-(trifluoromethyl)pyridin-3-yl)isoxazol-4-yl)-7-azaspiro[3.5]non-1-en-7-yl)-4-(difluoromethoxy)quinoline-2-carboxylic acid]
2150	COc1cc(N2CCC3(C=C(c4c(-c5c(Cl)cncc5Cl)noc4C4CC4)C3)CC2)ncc1C(=O)O [Example 76, 6-(2-(5-Cyclopropyl-3-(3,5-dichloropyridin-4-yl)isoxazol-4-yl)-7-azaspiro[3.5]non-1-en-7-yl)-4-methoxynicotinic acid]
68	O=C(O)c1cc(OC(F)F)c2cc(N3CCC4(C=C(c5c(-c6cccnc6C(F)(F)F)noc5C5CC5)C4)CC3)ccc2n1 [Example 77, 6-(2-(5-Cyclopropyl-3-(2-(trifluoromethyl)pyridin-3-yl)isoxazol-4-yl)-7-azaspiro[3.5]non-1-en-7-yl)-4-(difluoromethoxy)quinoline-2-carboxylic acid]
121	O=C(O)c1cc(OC(F)F)c2cc(N3CCC4(C=C(c5c(-c6ncccc6Cl)noc5C5CC5)C4)CC3)ccc2n1 [Example 78, 6-(2-(3-(3-Chloropyridin-2-yl)-5-cyclopropylisoxazol-4-yl)-7-azaspiro[3.5]non-1-en-7-yl)-4-(difluoromethoxy)quinoline-2-carboxylic acid]
733	O=C(O)c1cc2ccc(N3CCC4(C=C(c5c(-c6c(F)cccc6F)noc5C5CC5)C4)CC3)cc2nn1 [Example 79, 7-(2-(5-Cyclopropyl-3-(2,6-difluorophenyl)isoxazol-4-yl)-7-azaspiro[3.5]non-1-en-7-yl)cinnoline-3-carboxylic acid]
1360	O=C(O)c1cc2ccc(N3CCC4(C=C(c5c(-c6ccncc6Cl)noc5C5CC5)C4)CC3)cc2nn1 [Example 80, 7-(2-(3-(3-Chloropyridin-4-yl)-5-cyclopropylisoxazol-4-yl)-7-azaspiro[3.5]non-1-en-7-yl)cinnoline-3-carboxylic acid]
1540	O=C(O)c1cc2ccc(N3CCC4(C=C(c5c(-c6cnccc6C(F)(F)F)noc5C5CC5)C4)CC3)cc2nn1 [Example 81, 7-(2-(5-Cyclopropyl-3-(4-(trifluoromethyl)pyridin-3-yl)isoxazol-4-yl)-7-azaspiro[3.5]non-1-en-7-yl)cinnoline-3-carboxylic acid]
356	O=C(O)c1cc(C(F)(F)F)c2cc(N3CCC4(C=C(c5c(-c6c(F)cccc6F)noc5C5CC5)C4)CC3)ccc2n1 [Example 82, 6-(2-(5-Cyclopropyl-3-(2,6-difluorophenyl)isoxazol-4-yl)-7-azaspiro[3.5]non-1-en-7-yl)-4-(trifluoromethyl)quinoline-2-carboxylic acid]
